Results from paper PMC6130797 (ACS Omega, 2018).
Several values for one entry are separate records, joined by “and”; a condition that tells them apart may be missing. Identical values can stand only once. Like-named read-outs stand apart in the source and are kept apart here.

Assays:
gpH1R = gpH1R (Cavia porcellus, UniProt P31389); assay: Histamine H1 receptor assay on isolated guinea pig ileum
gpH2R = gpH2R (Cavia porcellus, UniProt P47747); parameters: species or system guinea pig
hH4R = hH4R (Homo sapiens, UniProt Q9H3N8); assay: Radioligand competition binding with [3H]histamine, Sf9 cell membranes
hH3R = hH3R (Homo sapiens, UniProt Q9Y5N1); assay: Radioligand competition binding with [3H]Nα-methylhistamine, Sf9 cell membranes
hH2R = hH2R (Homo sapiens, UniProt P25021); format: binding
hH1R = hH1R (Homo sapiens, UniProt P35367); assay: biochemical; format: binding
[1] = hH3R pKi, [3H]Nα-methylhistamine (Kd 8.6 nM, c = 3 nM), mean ± SEM
[2] = hH2R pKi, [3H]tiotidine (Kd […], c = 10 nM), mean ± SEM
[3] = hH1R pKi, [3H]mepyramine (Kd 4.5 nM, c = 5 nM), mean ± SEM

Sequence of hH2R (P25021 whole entry): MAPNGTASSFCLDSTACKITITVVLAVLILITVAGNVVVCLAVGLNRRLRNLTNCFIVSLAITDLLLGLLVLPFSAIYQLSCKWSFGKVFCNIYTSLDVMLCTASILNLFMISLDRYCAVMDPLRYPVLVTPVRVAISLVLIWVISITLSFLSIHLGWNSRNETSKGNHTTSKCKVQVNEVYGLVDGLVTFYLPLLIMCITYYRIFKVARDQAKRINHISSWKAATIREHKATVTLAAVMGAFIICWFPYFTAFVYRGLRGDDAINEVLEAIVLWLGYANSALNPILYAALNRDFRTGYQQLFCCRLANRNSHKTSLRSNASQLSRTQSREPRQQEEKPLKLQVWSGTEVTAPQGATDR
Sequence of hH2R (P63092 1-380 isoform P63092-2 partner): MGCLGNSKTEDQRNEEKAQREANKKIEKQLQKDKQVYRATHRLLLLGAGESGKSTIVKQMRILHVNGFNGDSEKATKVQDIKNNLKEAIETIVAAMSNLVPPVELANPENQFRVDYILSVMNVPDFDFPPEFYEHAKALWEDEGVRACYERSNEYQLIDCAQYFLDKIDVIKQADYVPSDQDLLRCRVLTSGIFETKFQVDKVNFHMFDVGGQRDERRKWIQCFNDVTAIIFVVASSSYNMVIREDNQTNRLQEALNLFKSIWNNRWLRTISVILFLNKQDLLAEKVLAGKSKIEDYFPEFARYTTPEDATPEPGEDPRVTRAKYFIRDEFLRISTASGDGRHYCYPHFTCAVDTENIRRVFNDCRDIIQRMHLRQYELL
Sequence of hH3R (Q9Y5N1 whole entry): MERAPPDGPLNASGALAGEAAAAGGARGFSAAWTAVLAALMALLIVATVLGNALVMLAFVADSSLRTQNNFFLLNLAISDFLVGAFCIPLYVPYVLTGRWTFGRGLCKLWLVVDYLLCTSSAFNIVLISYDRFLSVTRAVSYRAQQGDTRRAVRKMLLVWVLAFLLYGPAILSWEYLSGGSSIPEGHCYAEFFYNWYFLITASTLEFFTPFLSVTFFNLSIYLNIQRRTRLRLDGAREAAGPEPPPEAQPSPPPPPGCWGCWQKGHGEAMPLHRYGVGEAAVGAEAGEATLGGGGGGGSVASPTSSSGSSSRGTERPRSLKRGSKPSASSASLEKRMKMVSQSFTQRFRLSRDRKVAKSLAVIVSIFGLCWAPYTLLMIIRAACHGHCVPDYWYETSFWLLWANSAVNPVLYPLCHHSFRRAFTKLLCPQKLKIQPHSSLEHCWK
Sequence of gpH2R (P47747 whole entry): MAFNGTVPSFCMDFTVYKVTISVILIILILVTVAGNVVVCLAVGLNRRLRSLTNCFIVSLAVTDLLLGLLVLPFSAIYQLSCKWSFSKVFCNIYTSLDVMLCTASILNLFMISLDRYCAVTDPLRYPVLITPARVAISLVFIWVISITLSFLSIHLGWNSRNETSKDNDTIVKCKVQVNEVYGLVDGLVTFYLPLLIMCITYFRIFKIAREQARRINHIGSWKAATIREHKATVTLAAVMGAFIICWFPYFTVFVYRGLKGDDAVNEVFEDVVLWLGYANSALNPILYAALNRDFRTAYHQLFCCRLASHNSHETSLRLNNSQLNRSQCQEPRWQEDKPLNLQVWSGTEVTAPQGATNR
Sequence of gpH1R (P31389 whole entry): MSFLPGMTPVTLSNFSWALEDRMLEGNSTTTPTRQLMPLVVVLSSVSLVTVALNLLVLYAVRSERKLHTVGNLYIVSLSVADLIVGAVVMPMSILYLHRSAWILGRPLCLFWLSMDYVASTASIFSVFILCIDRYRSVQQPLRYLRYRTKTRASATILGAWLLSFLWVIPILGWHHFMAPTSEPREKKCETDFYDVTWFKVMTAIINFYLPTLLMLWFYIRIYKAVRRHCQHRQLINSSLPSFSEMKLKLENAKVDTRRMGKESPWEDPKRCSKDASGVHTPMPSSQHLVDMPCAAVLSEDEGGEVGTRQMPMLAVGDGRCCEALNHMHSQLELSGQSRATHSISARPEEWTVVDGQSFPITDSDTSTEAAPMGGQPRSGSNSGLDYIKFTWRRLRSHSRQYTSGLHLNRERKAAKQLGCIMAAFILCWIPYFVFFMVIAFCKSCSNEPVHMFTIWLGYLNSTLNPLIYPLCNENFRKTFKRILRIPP
Sequence of hH1R (P35367 whole entry): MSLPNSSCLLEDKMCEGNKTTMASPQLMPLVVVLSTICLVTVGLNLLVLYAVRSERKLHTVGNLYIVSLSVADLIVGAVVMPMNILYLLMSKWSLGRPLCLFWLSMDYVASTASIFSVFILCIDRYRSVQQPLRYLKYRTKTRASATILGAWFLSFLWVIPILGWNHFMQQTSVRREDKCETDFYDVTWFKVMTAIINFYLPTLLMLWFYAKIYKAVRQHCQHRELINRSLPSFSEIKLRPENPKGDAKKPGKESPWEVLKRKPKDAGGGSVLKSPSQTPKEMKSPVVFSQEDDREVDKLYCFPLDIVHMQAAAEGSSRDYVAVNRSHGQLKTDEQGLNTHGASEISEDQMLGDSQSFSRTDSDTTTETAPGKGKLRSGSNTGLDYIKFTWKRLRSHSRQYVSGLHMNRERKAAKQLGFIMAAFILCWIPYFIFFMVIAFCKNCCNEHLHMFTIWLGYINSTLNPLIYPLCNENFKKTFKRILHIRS

Row | Kb (gpH1R) [µM] | EC50 (gpH2R) [nM] | gpH2R Emax (gpH2R) | Ki (hH4R; hH4R pKi) [nM] | Ki (hH3R; [1]) [nM] | Ki (hH2R; [2]) [nM] | Ki (hH1R; hH1R pKi) [µM] | Ki (hH1R; [3]) [µM] | Ki (hH4R; Ki hH4R, bound stated) [nM] | Ki (hH3R; Ki hH3R, bound stated) [nM] | Ki (hH2R; Ki hH2R, bound stated) [nM] | Ki (hH1R; Ki hH1R, bound stated) [µM] | gpH1R pA2 (gpH1R; guinea pig ileum, antagonism of histamine-induced contraction) | SMILES | Kd (hH3R; read-out: Kd of radioligand at hH3R, Sf9 membranes) [nM]
1 | 0.631 | 49 | 0.96 and 0.96 ± 0.01 | 200 | 112 | 174 | > 10 |  |  |  |  |  |  | N=C(NCCCNC(=N)NCCCc1c[nH]cn1)NCCCc1c[nH]cn1 [Compound 53] | 
2 | 1.29 | 38 | 0.94 ± 0.01 | 661 | 145 | 407 | > 10 |  |  |  |  |  |  | N=C(NCCCCNC(=N)NCCCc1c[nH]cn1)NCCCc1c[nH]cn1 [Compound 54] | 
3 | 2.04 | 16.6 | 0.90 ± 0.04 | 427 | 52.5 | 151 | > 3.16 |  |  |  |  |  |  | N=C(NCCCCCCNC(=N)NCCCc1c[nH]cn1)NCCCc1c[nH]cn1 [Compound 55] | 
4 | 0.229 | 25.1 | 0.71 ± 0.04 | 20.9 | 19.1 | 33.9 | 1.26 |  |  |  |  |  |  | N=C(NCCCCCCCCCCNC(=N)NCCCc1c[nH]cn1)NCCCc1c[nH]cn1 [Compound 56] | 
5 | 4.27 | 4900 | 0.20 and 0.20 ± 0.02 | 33900 | 2750 | 4470 | > 10 |  |  |  |  |  |  | N=C(NCCCCCCCCNC(=N)NCCCn1ccnc1)NCCCn1ccnc1 [Compound 60] | 
6 | 58.9 | 7940 | 0.58 ± 0.07 | 26.3 | 155 | 2750 |  | > 31.6 |  |  |  |  |  | CNC(=N)NCCCc1c[nH]cn1 [Compound 127] | 
7 | 8.32 | 7240 | 0.55 ± 0.07 | 13.5 | 93.3 | 4900 |  | > 31.6 |  |  |  |  |  | CCNC(=N)NCCCc1c[nH]cn1 [Compound 128] | 
8 |  |  | 0.83 ± 0.03 |  |  | 3020 |  | > 31.6 | < 100 | < 100 | > 1000 | > 1 |  | CCCNC(=N)NCCCc1c[nH]cn1 [Compound 129, 1-[3-(1H-Imidazol-4-yl)propyl]-3-propylguanidine] | 
9 | 5.37 | 1550 | 0.87 ± 0.04 | 38 | 91.2 | 4170 | > 10 |  |  |  |  |  |  | CC(C)NC(=N)NCCCc1c[nH]cn1 [Compound 130] | 
10 | 4.07 | 832 | 0.86 ± 0.04 | 9.12 | 61.7 | 776 | > 10 |  |  |  |  |  |  | CCCCNC(=N)NCCCc1c[nH]cn1 [Compound 131] | 
11 | 10.2 | 1350 | 0.86 ± 0.08 | 17.8 | 66.1 | 759 |  | > 31.6 |  |  |  |  |  | CC(C)CNC(=N)NCCCc1c[nH]cn1 [Compound 132] | 
12 |  | 15100 | 0.92 ± 0.03 | 219 | 372 | 2510 | > 100 |  |  |  |  |  |  | CC(C)(C)NC(=N)NCCCc1c[nH]cn1 [Compound 133] | 
13 | 4.47 | 363 | 0.90 ± 0.02 | 6.76 | 91.2 | 933 | > 10 |  |  |  |  |  |  | CCCCCNC(=N)NCCCc1c[nH]cn1 [Compound 134] | 
14 | 7.24 | 240 | 0.89 ± 0.05 | 25.1 | 115 | 794 | > 10 |  |  |  |  |  |  | CC(C)CCNC(=N)NCCCc1c[nH]cn1 [Compound 135] | 
15 | 0.182 | 295 | 0.90 ± 0.03 | 97.7 | 31.6 | 141 | 2 |  |  |  |  |  | 6.74 | CCCCCCCCCCNC(=N)NCCCc1c[nH]cn1 [Compound 137] | 
16 |  |  |  |  |  |  |  |  |  |  |  |  |  | CNCCc1cnc[nH]1 [[^3H]N^α-methylhistamine, reference compound] | 8.6
